Substitutions are numbered along the chain they refer to. “Also recorded” adds a separate entry of the source. Read-outs that look alike come from different tables or passages of the source.
Legend:
[1] = test system: uninjected oocytes; test: Resting membrane currents in uninjected oocytes
Source text: IVM and alcohol applications. […] To allow comparison of the effects of IVM with those of ethanol, the same co-application protocol was used for IVM.

[2] = target: T1, rat P2X4R (Rattus norvegicus, UniProt P51577); test: Two-electrode voltage-clamp of ATP EC10-induced currents in WT P2X4Rs expressed in Xenopus oocytes; assay type: cell-based
T1 construct: expressed in transfected cells; host or cells: Xenopus laevis oocytes injected with cRNA
T1 sequence (P51577 1-388): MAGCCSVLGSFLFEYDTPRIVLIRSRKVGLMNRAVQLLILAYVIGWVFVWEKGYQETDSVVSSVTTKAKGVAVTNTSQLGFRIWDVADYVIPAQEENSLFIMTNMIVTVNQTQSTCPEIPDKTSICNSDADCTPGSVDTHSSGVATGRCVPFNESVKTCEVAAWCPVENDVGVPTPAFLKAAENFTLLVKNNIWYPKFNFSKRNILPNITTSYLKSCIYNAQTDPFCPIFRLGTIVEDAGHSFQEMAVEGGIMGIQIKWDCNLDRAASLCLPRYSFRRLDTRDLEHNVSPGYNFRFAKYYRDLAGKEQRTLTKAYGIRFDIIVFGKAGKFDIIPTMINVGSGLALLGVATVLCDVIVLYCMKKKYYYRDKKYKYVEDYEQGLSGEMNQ
Description: Isolation of Xenopus Laevis oocytes and cRNA injections. Xenopus oocytes were isolated and maintained as described previously^18,19. All procedures for the maintenance of Xenopus Laevis frogs and oocyte isolation were approved by The Institutional Animal Care and Use Committee of the University of Southern California. Stage V and VI oocytes were used for cRNA (0.01-5 ng) injections using Nanoject II Nanoliter injection system (Drummond Scientific, Broomall, Pa.) one day after isolation. Injected oocytes were stored at 16° C. in incubation medium containing (in mM), […], theophylline 0.6, pyruvic acid 2.5, with 1% horse serum and 0.05 mg/ml gentamycin. The oocytes were used in electrophysiological recordings for 3-10 days after cRNA injections.
(§1) Site-directed mutagenesis and cRNA synthesis. The cDNA of rat P2X4R (GenBank accession No. X87763) was sub-cloned into pcDNA3 vector (Invitrogen, Carlsbad, Calif.). Mutagenesis was performed to introduce single point mutations using QuickChange IIXL Site-Directed Mutagenesis kit (Stratagene, La Jolla, Calif.). The sequences of mutant constructs were verified using automated DNA sequencing (USC/Norris DNA Core Facility, University of Southern California).
The DNA of WT or mutant receptors was linearized and transcribed using the mMESSAGE mMACHINE kit (Ambion, Austin, Tex.) to result in cRNA, which was stored at −70° C. until injection.
(§2) Whole-cell voltage-clamp recordings. Two-electrode voltage-clamp recordings of oocytes were performed using a Warner Instruments Model OC-725C oocyte clamp amplifier (Hamden, Conn.) using procedures published earlier^5,6.
(§3) Experimental procedures. To induce currents and test the effects of alcohols and IVM in the present experiments, maximal (100 μM) or submaximal ATP concentrations (EC5-10 furthered referred to as EC10) were used. It has been previously shown that the use of EC10 can maximize the effects of ethanol and minimize receptor desensitization 18,19. The washout time between agonist applications was at least 5-10 min to allow complete re-sensitization of the receptors^18, 19.
(§4) Effects of the drugs were tested after a stable response to ATP EC10 was obtained. After a sufficient washout time (5-15 min), the cells were challenged with the same ATP EC10 to ensure an accurate response to the drugs and to asses any change in the baseline level.
(§5) IVM and alcohol applications.
(§6) Data analysis. Data are obtained from several batches of oocytes of at least 3 different frogs and are expressed as mean±SEM. Ethanol (hexanol) and/or IVM effects are presented as percentage change of peak currents evoked by ATP EC10 alone. Data were fitted to a concentration-response curve by using the following logistic equation: I=Imax*[drug]/([drug]+(EC50)), where I/Imax is the percentage of the maximum obtainable response, EC50 is the concentration producing a half-maximal response. GraphPAD Prism software (San Diego, Calif.) was used for data analysis and curve fitting. Statistical analysis was performed using unpaired t-test with significance set at P<0.05.

[3] = test system: C57BL/6 mice; test: Two-bottle choice ethanol (10E versus water) intake in C57BL/6 mice
Description: Based on the initial experiments, a second study was conducted using a similar research design strategy with the following changes. Using a within subjects design, alcohol drinking was allowed to stabilize (based on DOSE approximately 10 g/kg) with a new set of C57Bl mice (n=15). […] On intervening days, the mice were injected with saline. After 3 days of saline injections (allowing for alcohol drinking to restabilize back to ‘baseline’ levels), the mice were injected with a single, higher dose of IVM (5.0 mg/kg). Once again drinking was allowed to re-established back to baseline.

[4] = target: T2, P2X4Rs (Rattus norvegicus, UniProt P51577); test: Surface biotinylation and Western blotting of P2X4R surface expression in oocytes; assay type: cell-based; conditions: 3 μM IVM in the presence of 1 μM ATP; 20 s and 2 min
T2 construct: expressed in transfected cells; host or cells: Xenopus laevis oocytes injected with cRNA
T2 sequence (P51577 1-388): T1 sequence (P51577 1-388)
Description: Surface biotinylation and Western blotting. Oocytes expressing P2X4R cRNA were treated with 3 μM IVM in the presence and absence of 1 μM ATP and incubated with 1.0 mg/ml membrane-impermeable sulfo-NHS-SS-biotin (Pierce Biotechnology, Rockford, Ill.) for 1 hr on ice. After lysis, the biotinylated proteins were precipitated by overnight incubation with streptavidin beads (Pierce Biotechnology) and extracted using SDS sample buffer. Protein lysates of total and biotinylated fractions were then run on 10% SDS-PAGE, transferred to PVDF membranes and blotted with a rabbit P2X4R antibody (Millipore, Temecula, Calif.). Following incubation with the secondary anti-rabbit antibody, the P2X4R bands were visualized using enhanced chemiluminescence (Pierce Biotechnology).

[5] = test system: male C57BL/6 mice; conditions: for decrease in alcohol consumption: 10% alcohol, 24 hour access
[6] = target: T3, rat WT P2X4 receptor (Rattus norvegicus, UniProt P51577); test: Comparison of Ivermectin analogues: two-electrode voltage-clamp of ATP EC10 currents in rat WT P2X4 receptor in Xenopus oocytes; assay type: cell-based; conditions: for potentiation of ATP-induced currents, concentration dependence: co-application and pre-incubation (FIGS. 10C and 10D)
T3 construct: expressed in transfected cells; host or cells: Xenopus laevis oocytes injected with cRNA
T3 sequence (P51577 1-388): T1 sequence (P51577 1-388)
Description: Isolation of Xenopus Oocytes and cRNA Injections. Xenopus laevis frog (Nasco; WI) maintenance, oocyte isolation and cRNA injections were performed according to protocols as described previously (11,12,24).
Transcription of cDNA to cRNA. XL-Blue E. coli competent cells (Stratagene; CA) were transformed with rat WT P2X4 receptor cDNAs cloned into pcDNA3 vector (Invitrogen; CA). The isolated DNA was linearized and transcribed to result in capped cRNA, which was dissolved in nuclease-free water and stored at −70° C. until injection.
Whole-Cell Voltage Clamp Recording. […] Electrodes were prepared and used to impale the oocyte that was continuously perfused at the rate of 3-4 ml/min by extracellular bathing solution per procedures previously published (11,12,24). The peak currents recorded using a strip-chart recorder (Barnstead/Thermolyne, Iowa) were used in data analysis. All experiments were performed at room temperature (20-23° C.).
Experimental Procedures. Maximal ATP currents were induced by 15 s application of 100 μM ATP. Submaximal ATP concentrations (EC10) were applied for 20 s to generate currents. Ethanol and ABM/IVM were co-applied with ATP EC10. Washout time between drug applications was at least 5 min.
Data Analysis. Data are obtained from several batches of at least 3 different oocyte batches and are presented as percentage change of peak currents evoked by ATP EC10 alone±SEM. GraphPAD Prism software (San Diego, Calif.) was used for data analysis and curve fitting. Statistical analysis was performed using Student's unpaired t-test and significance set at P<0.05.

[7] = test system: mutant P2X4Rs at position 336; test: Two-electrode voltage-clamp of ATP-induced currents in mutant P2X4Rs with substitutions at position 336 in Xenopus oocytes; assay type: cell-based, rat; conditions: IVM 3 μM
Description: as §1, §2, §3, §4, §5, §6

[8] = target: T4, mutant P2X4Rs at position 336 (Rattus norvegicus, UniProt P51577, M336Q); test: as above; assay type: cell-based; conditions: Met336 substituted with Gln; IVM 3 μM
T4 construct: expressed in transfected cells; host or cells: Xenopus laevis oocytes injected with cRNA
T4 sequence (P51577 1-388 M336Q): T1 sequence (P51577 1-388) with M336Q
Description: as §1, §2, §3, §4, §5, §6

[9] = test system: mutant P2X4Rs at position 336; conditions: cited from earlier work
[10] = test system: P2X2R; test: Effect of n-chain alcohols on P2X2R function (unpublished data); assay type: cell-based
Source text: This possibility was investigated by testing the effects of IVM on another n-chain alcohol. Previous investigations report that short chain alcohols potentiate, whereas long chain alcohols inhibit, native nicotinic acetylcholine receptors (nAChRs) contained in neuromuscular or Torpedo preparations^26-28. This alcohol crossover occurred at approximately butanol in nAChRs expressed in Xenopus oocytes^29. […] It is believed that testing an alcohol that produced potentiation, rather than inhibition, would provide an alternative method of determining if the interaction between ethanol and IVM represented an additive effect.

## CC[C@H](C)[C@H]1O[C@]2(CC[C@@H]1C)C[C@@H]1C[C@@H](C/C=C(\C)[C@@H](O[C@H]3C[C@H](OC)[C@@H](O[C@H]4C[C@H](OC)[C@@H](O)[C@H](C)O4)[C@H](C)O3)[C@@H](C)/C=C/C=C3\CO[C@@H]4[C@H](O)C(C)=C[C@@H](C(=O)O1)[C@]34O)O2 [IVM, 5-O demethyl-22,23-dihydroavermectin A1a]
[1]
  resting membrane currents in uninjected oocytes: did not affect
[2]; 0.5 μM IVM co-applied with 25 mM ethanol
  antagonism of the inhibitory effect of ethanol on ATP-activated currents: completely antagonized
[2]; 0.5 μM IVM, delivered separately, ATP EC10
  potentiation of ATP-gated currents in P2X4Rs: 31±4.9%
[2]; IVM 0.5 μM, 200 mM ethanol
  antagonism of the inhibitory effects of ethanol: did not significantly alter
[2]; IVM 0.5 μM, 50 and 100 mM ethanol
  antagonism of the inhibitory effects of ethanol: completely antagonized
[2]; IVM 3 μM applied individually
  effect on ATP-induced currents in P2X4R: significantly potentiated
[2]; IVM 3 μM with hexanol 10 mM
  net result of exposure to both IVM and hexanol versus additive effects: significantly less
[2]; IVM 0.5, 1 and 3 μM with ethanol 50, 100, 200 mM
  combined action of IVM and ethanol versus estimated additive values of the individual effects: significantly lower
[2]; IVM 1.0 and 3.0 μM, all ethanol concentrations (50-200 mM)
  antagonism of the inhibitory effects of ethanol: completely antagonizing
[2]; IVM co-applied with ATP, concentration-dependent and reversible
  effect on EC10 ATP-gated currents in P2X4Rs: significantly potentiated
[3]; IVM 10 mg/kg intraperitoneally
  average water consumption: significant increase
  ethanol intake: non-significant reduction
[3]; IVM 10 mg/kg intraperitoneally prior to each day of access, 4 days, versus saline
  daily 10E preference: strong trend
[3]; IVM 10 mg/kg intraperitoneally, day 3
  10E preference on day 3: significantly lower
[3]; single injection of IVM 2.5 mg/kg and 5.0 mg/kg, within subjects design, versus baseline with saline
  ethanol consumption: significantly reduced
[4]
  surface expression levels of P2X4Rs in oocytes: did not change
[5]; IVM 2.5 mg/kg
  decrease in alcohol consumption: 32%
[5]; IVM 10 mg/kg
  decrease in alcohol consumption: 50%
[6]; IVM co-applied with ethanol (FIGS. 9A and B)
  antagonism of the inhibitory effects of ethanol: antagonizes
[6]
  potentiation of ATP-induced currents, concentration dependence: concentration dependent
[7]; Met336 substituted with Ala or Val
  degree of IVM potentiation compared to WT P2X4Rs: markedly increased
[7]; Met336 substituted with Arg or Glu
  sensitivity to IVM: eliminated sensitivity
[7]; Met336 substituted with Phe or Trp
  degree of IVM potentiation compared to WT P2X4Rs: increased IVM potentiation
[8]
  IVM sensitivity compared to non-polar bulky substitutions: approximately the same effect

## CCO [ethanol]
[9]; Ala, Val at position 336
  sensitivity of the receptor to ethanol: reduced
[9]; Arg or Glu at position 336
  sensitivity of the receptor to ethanol: insensitive
[2]; 25 mM ethanol, delivered separately, ATP EC10, read-out: inhibition of ATP-gated currents in P2X4Rs
  inhibition at 25000 µM: 9 ± 2.3%
[2]; ethanol 25-200 mM co-applied with ATP, concentration-dependent and reversible
  effect on ATP EC10-induced currents in P2X4Rs: inhibited
[2]; ethanol (C2) 200 mM
  effect on ATP-induced currents in P2X4R: inhibited
[10]
  effect on P2X2R function: inhibit

## CCCCCCO [hexanol]
[2]; hexanol (C6) 10 mM
  effect on ATP-induced currents in P2X4R: significantly potentiated; also recorded: significant potentiation

## CCCO [propanol]
[10]
  effect on P2X2R function: inhibit

## Abamectin [ABM]
[6]; ABM 0.5 μM, 25 and 50 mM ethanol
  antagonism of the inhibitory effects of ethanol: antagonizes
[6]; ABM 1.0 μM, all ethanol concentrations tested
  antagonism of the inhibitory effects of ethanol: able to antagonize
[6]; higher concentrations (≧3 μM)
  potency in modulating P2X4R activity relative to IVM (more potent): 3-10 fold
[6]; lower concentrations (0.5 and 1.0 μM)
  potentiation of P2X4R activity compared with IVM: to the same degree as IVM

## Selamectin
[5]; mouse, in vivo
  ethanol intake in mice: no effect
[6]
  potency in modulating P2X4R activity relative to IVM (lower potency): 3-5 fold
  potentiation of ATP-induced currents, concentration dependence: small concentration-independent potentiation
[6]; SEL at 3 and 10 mM, 50 mM ethanol, co-application
  antagonism of the inhibitory effects of ethanol: antagonistic effect
[6]; only at 10 μM SEL during co-application
  potentiation of P2X4Rs: Significant potentiation
[6]; pre-incubation
  potentiation with the pre-incubation protocol versus co-application: higher potentiation

## butanol
[2]; butanol (C4) 50 mM
  effect on ATP-induced currents in P2X4R: minimal effect
[2]; butanol (C4) 50 mM, listed as Butanol
  effect on ATP-induced currents in P2X4R: minimal effects
[10]
  effect on P2X2R function: potentiates

Reference: US8796230B2, “Ivermectin antagonizes ethanol inhibition in P2X4 receptors” (University of Southern California, priority 2010, dated 2014)
